In patent publication US8063060B2, “R(−)-11-hydroxyaporphine derivatives and uses thereof” (The McLean Hospital Corporation, priority 2004, dated 2011):
Where a name gives a salt, the structure may show the parent alone. Read-outs that look alike come from different tables or passages of the source.

Legend:
[1] = following a single dose; cited from earlier work
[2] = test system: adult male Sprague-Dawley rats; experiment: Stimulation of motor activity (photobeam activity monitoring), in vivo potency and oral bioavailability; parameters: species or system rat; conditions: for Induced motor activation, Response (total of electronically monitored locomotor responses, scored over time): relative to 4 μmol/kg i.p. R(−)-apomorphine = 1
Procedure: In vivo potency and oral bioavailability of the aporphine derivatives were determined by measuring stimulation of motor activity in adult male Sprague-Dawley rats using a photobeam activity monitoring system (San Diego Instruments; San Diego, Calif.). See Zhang et al., Neuropsychopharmacology 25:624 (2001). The number of animal subjects in each experimental group ranged from 4 to 8. Oral delivery of test agents was achieved using a permanently surgically pre-implanted polyethylene gastric tube to avoid stress associated with conventional oral intubation. For this surgery, rates were anesthetized with 60 mg/kg sodium pentobarbital intraperitoneally. PE50 tubing was inserted and sutured to the stomach, and led subcutaneously to a point of access on the back of the neck, where it was sutured in place. Animals were allowed two weeks to recover prior to behavior testing.

human D3 receptor = target: T1, human D3 receptor (Homo sapiens, UniProt P35462); experiment: Affinity at human D3 receptor in transfected cell membranes, tritium-labeled 7-OH-DPAT; assay type: binding
T1 construct: expressed in transfected cells
Procedure: (§1) Affinity data were obtained in cells transfected with human D1, D2, or D3 receptor cDNA. Cells were grown and harvested using standard procedures.

dopamine D1 receptor = target: T2, dopamine D1 receptor (Rattus norvegicus, UniProt P18901); experiment: Radioligand competition assay, D1 receptor, rat corpus striatum membranes, [3H]SCH-23390; assay type: binding
T2 construct: membrane preparations from dopamine-rich corpus striatum (caudatoputamen) tissue from rat forebrain; from tissue; host or cells: corpus striatum (caudatoputamen) of adult male Sprague-Dawley rats
Procedure: (§2) Affinity of N-alkyl R(−)-11-hydroxyaporphines (14, 4, 5, 15, 23, 24) and their esters (17-19) for the dopamine D1 and D2 receptors was determined by radioligand competition assays, using membrane preparations from dopamine-rich corpus striatum (caudatoputamen) tissue from rat forebrain. Adult male Sprague-Dawley rats were sacrificed by decapitation following carbon dioxide narcosis. Brains were quickly removed and dissected on ice. Tissue was homogenized in 50 mM Tris-HCl buffer (pH 7.4) containing 150 mM NaCl, washed twice and resuspended in the same buffer. For the D1 dopamine receptor assay, homogenate was incubated with 0.3 nM [^3H]SCH-23390 (Perkin Elmer; Boston, Mass.) for 30 minutes at 30° C. Non-specific binding was defined with 10 μM cis-flupenthixol. See Faedda et al., Biochem. Pharmacol. 38:473 (1989). For the D2 receptor assay, homogenate was incubated with […] [^3H]nemonapride (Perkin Elmer, Boston, Mass.) for 90 minutes at 30° C. Nonspecific binding was defined with 10 μM haloperidol. See Baldessarini et al., Mol. Pharmacol. 42:856 (1992). Experiments were carried out in triplicate.

dopamine D2 receptor = dopamine D2 receptor (Rattus norvegicus, UniProt P61169); experiment: Radioligand competition assay, D2 receptor, rat corpus striatum membranes, [3H]nemonapride; assay type: binding
Procedure: as §2

human D1 receptor = target: T3, human D1 receptor (Homo sapiens, UniProt P21728); experiment: Affinity at human D1 receptor in transfected cell membranes, tritium-labeled SCH-23390; assay type: binding
T3 construct: expressed in transfected cells
Procedure: as §1

human D2 receptor = target: T4, human D2 receptor (Homo sapiens, UniProt P14416); experiment: Affinity at human D2 receptor in transfected cell membranes, tritium-labeled nemonapride; assay type: binding
T4 construct: expressed in transfected cells
Procedure: as §1

[3] = transfected cell membranes, read-out: Affinity at human receptors, D3
[4] = rat striatal membranes, 0.3 nM [3H]SCH-23390, 30 minutes at 30° C, read-out: Affinity at rat dopamine receptors, D1
[5] = rat striatal membranes, [3H]nemonapride, 90 minutes at 30° C, read-out: Affinity at rat dopamine receptors, D2
[6] = transfected cell membranes, read-out: Affinity at human receptors, D1
[7] = transfected cell membranes, read-out: Affinity at human receptors, D2

T2 sequence (P18901 whole entry): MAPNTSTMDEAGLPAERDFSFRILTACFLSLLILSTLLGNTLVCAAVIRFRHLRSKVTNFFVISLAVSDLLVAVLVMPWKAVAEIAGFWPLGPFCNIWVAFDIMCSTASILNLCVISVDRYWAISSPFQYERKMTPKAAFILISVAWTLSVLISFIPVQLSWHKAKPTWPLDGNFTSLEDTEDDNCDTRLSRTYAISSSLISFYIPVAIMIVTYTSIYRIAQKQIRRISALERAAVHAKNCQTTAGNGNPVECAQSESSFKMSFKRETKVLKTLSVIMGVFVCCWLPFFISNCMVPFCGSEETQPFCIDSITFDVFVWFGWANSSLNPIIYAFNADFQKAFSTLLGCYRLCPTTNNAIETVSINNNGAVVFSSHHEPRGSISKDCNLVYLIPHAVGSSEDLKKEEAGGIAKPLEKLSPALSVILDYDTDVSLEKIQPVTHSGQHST
T1 sequence (P35462 whole entry): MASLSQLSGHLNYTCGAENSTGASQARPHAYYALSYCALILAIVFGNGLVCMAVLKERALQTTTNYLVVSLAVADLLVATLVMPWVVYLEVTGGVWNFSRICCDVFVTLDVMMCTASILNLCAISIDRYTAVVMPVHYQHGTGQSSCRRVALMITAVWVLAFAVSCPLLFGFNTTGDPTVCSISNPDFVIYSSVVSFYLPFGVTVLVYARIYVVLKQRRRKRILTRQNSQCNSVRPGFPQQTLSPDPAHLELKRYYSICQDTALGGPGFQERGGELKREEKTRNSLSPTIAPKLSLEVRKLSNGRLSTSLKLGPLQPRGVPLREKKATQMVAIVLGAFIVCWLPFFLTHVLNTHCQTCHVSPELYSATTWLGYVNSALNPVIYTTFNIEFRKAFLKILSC
T3 sequence (P21728 whole entry): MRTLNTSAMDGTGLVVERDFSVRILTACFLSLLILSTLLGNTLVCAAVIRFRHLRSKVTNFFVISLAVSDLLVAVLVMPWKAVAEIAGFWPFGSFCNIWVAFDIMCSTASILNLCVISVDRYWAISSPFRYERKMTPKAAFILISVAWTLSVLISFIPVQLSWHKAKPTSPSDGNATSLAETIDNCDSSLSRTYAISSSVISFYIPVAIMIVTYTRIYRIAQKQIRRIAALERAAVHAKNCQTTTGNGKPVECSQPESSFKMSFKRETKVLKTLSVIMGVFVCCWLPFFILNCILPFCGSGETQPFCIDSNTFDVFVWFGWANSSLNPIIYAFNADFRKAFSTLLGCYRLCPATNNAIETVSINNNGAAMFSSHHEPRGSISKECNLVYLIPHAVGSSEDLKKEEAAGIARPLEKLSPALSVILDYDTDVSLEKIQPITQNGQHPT
T4 sequence (P14416 whole entry): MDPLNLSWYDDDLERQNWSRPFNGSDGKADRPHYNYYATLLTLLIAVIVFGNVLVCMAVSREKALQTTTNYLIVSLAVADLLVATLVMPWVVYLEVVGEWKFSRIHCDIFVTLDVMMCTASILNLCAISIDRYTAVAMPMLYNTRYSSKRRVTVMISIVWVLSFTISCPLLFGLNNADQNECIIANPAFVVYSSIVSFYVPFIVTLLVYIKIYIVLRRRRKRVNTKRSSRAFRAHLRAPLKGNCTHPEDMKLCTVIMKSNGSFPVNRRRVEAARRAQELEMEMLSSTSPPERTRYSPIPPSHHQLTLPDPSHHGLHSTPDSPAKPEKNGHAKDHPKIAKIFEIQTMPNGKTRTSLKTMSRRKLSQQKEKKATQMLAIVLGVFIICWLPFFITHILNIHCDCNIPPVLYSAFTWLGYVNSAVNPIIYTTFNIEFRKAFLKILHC
Chain of dopamine D2 receptor (P61169 1-415 isoform P61169-2): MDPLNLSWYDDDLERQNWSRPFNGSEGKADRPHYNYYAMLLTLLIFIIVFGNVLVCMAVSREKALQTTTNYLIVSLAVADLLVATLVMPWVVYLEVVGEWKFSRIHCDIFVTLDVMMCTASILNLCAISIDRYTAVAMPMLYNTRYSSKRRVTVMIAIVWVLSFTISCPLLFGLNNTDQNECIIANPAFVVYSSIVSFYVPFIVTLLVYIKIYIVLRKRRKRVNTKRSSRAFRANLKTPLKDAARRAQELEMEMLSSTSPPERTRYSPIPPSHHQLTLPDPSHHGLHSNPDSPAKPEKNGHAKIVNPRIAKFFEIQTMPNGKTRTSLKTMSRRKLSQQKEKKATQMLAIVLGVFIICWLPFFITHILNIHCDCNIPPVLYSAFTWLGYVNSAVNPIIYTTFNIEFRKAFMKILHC

| Compound | Induced motor activation, Response (total of electronically monitored locomotor responses, scored over time) ([2]; 4 μmol/kg, gastric) | Induced motor activation, Duration ([2]; 4 μmol/kg, peritoneal) | Induced motor activation, Response (total of electronically monitored locomotor responses, scored over time) ([2]; 4 μmol/kg, peritoneal) | Induced motor activation, Duration ([2]; 20 μmol/kg, gastric) | Induced motor activation, Response (total of electronically monitored locomotor responses, scored over time) ([2]; 20 μmol/kg, gastric) | Ki (dopamine D1 receptor; [4]) | also measured |
| --- | --- | --- | --- | --- | --- | --- | --- |
| C=CCN1CCc2cccc3c2[C@H]1Cc1cccc(O)c1-3 (as salt: hydrochloride) [Compound 5, R(−)-N-allyl-11-hydroxynoraporphine] |  |  |  |  |  |  | melting point: 186 to 190 °C |
| CCN1CCc2cccc3c2[C@H]1Cc1cccc(O)c1-3 (as salt: hydrochloride) [Compound 14, R(−)—N-ethyl-11-hydroxynoraporphine] |  |  |  |  |  |  | melting point: 250 °C |
| CN1CCc2cccc3c2[C@H]1Cc1ccc(O)c(O)c1-3 [Compound 1, R(−)-apomorphine] |  |  |  |  |  |  | effects last for [1]: 40 to 60 min; onset of action [1]: 5 to 15 min |
| CCCN1CCc2cccc3c2[C@H]1Cc1ccc(O)c(O)c1-3 [Compound 2, R(−)-N-propylnorapomorphine, reference compound] | 0 | 8 h | 12 | 14 h | 68 |  | Ki (human D3 receptor; [3]): 0.00051 ± 7e-05 µM |
| CN1CCc2cccc3c2[C@H]1Cc1cccc(O)c1-3 [Compound 3, R(−)-11-OH-aporphine, reference compound] |  |  |  |  |  | 0.0265 ± 0.00103 µM | Ki (dopamine D2 receptor; [5]): 0.108 ± 0.0108 µM |
| CCCN1CCc2cccc3c2[C@H]1Cc1cccc(O)c1-3 [Compound 4, R(−)—N-propyl-11-hydroxynoraporphine] | 0 | 8 h | 24 | 18 h | 76 |  | Ki (human D1 receptor): 1.28 ± 0.209 µM; Ki (human D3 receptor): 0.00489 ± 0.00106 µM |
| C=CCN1CCc2cccc3c2[C@H]1Cc1cccc(O)c1-3 [Compound 5, R(−)-N-allyl-11-hydroxynoraporphine] |  |  |  |  |  |  | Ki (dopamine D1 receptor): 0.397 ± 0.051 µM; Ki (dopamine D2 receptor): 0.0411 ± 0.011 µM; Ki (human D1 receptor): 0.944 ± 0.149 µM; Ki (human D2 receptor): 0.113 ± 0.017 µM |
| CCN1CCc2cccc3c2[C@H]1Cc1cccc(O)c1-3 [Compound 14, R(−)—N-ethyl-11-hydroxynoraporphine] | 0 | 4 h | 12 |  | 0 | 0.177 ± 0.013 µM | Ki (dopamine D2 receptor): 0.088 ± 0.0155 µM; Ki (human D1 receptor; [6]): 0.362 ± 0.038 µM; Ki (human D2 receptor; [7]): 0.283 ± 0.053 µM; Ki (human D3 receptor): 0.0367 ± 0.004 µM |
| Oc1cccc2c1-c1cccc3c1[C@@H](C2)N(CC1CC1)CC3 [Compound 15, R(−)-N-cyclopropylmethyl-11-hydroxynoraporphine] |  |  |  |  |  | 0.272 ± 0.018 µM | Ki (dopamine D2 receptor): 0.0963 ± 0.0158 µM; Ki (human D2 receptor; [7]): 0.436 ± 0.039 µM; Ki (human D3 receptor): 0.0301 ± 0.0035 µM |
| CC/C=C\C/C=C\C/C=C\C/C=C\C/C=C\C/C=C\CCC(=O)Oc1cccc2c1-c1cccc3c1[C@@H](C2)N(CCC)CC3 [Compound 17, R(−)-11-O-docosahexaenoyl-N-propyl-noraporphine] | 0 |  |  | 12 h | 75 |  | Induced motor activation, Response (total of electronically monitored locomotor responses, scored over time) ([2]; 4 μmol/kg, cutaneous): 0; Induced motor activation, Duration ([2]; 20 μmol/kg, cutaneous): 6 h; Induced motor activation, Response (total of electronically monitored locomotor responses, scored over time) ([2]; 20 μmol/kg, cutaneous): 5 |
| CCCCC(=O)Oc1cccc2c1-c1cccc3c1[C@@H](C2)N(CCC)CC3 [Compound 18, R(−)-11-O-valeryl-N-propyl-noraporphine] | 0 | 12 h | 53 | 14 h | 99 |  | Ki (dopamine D2 receptor; read-out: Affinity at rat dopamine receptors, D2): 0.34 ± 0.065 µM |
| CCCN1CCc2cccc3c2[C@H]1Cc1cccc(OC(C)=O)c1-3 [Compound 19, R(−)-11-O-acetyl-N-propyl-noraporphine] | 0 | 8 h | 12 | 16 h | 168 |  | Ki (dopamine D2 receptor; [5]): 0.0723 ± 0.0068 µM |
| CCCN1CCc2cc(F)cc3c2[C@H]1Cc1ccc(O)c(O)c1-3 [Compound 22, R(−)-2-fluoro-N-n-propylnorapomorphine, reference compound] |  |  |  |  |  | 0.618 ± 0.133 µM | Ki (dopamine D2 receptor; [5]): 0.0172 ± 0.0012 µM; Ki (human D1 receptor; [6]): 0.414 ± 0.03 µM; Ki (human D2 receptor; [7]): 0.046 ± 0.0026 µM; Ki (human D3 receptor; [3]): 0.00249 ± 0.00018 µM |
| CCCN1CCc2cc(F)cc3c2[C@H]1Cc1cccc(O)c1-3 [Compound 23, R(−)-2-fluoro-N-propyl-11-hydroxynoraporphine] |  |  |  |  |  |  | Ki (dopamine D1 receptor): 0.0126 ± 0.0006 µM; Ki (dopamine D2 receptor; [5]): 0.203 ± 0.037 µM |
| CN1CCc2cc(O)cc3c2[C@H]1Cc1cccc(O)c1-3 [Compound 24, R(−)-2,11-dihydroxyaporphine] |  |  |  |  |  | 0.122 ± 0.008 µM | Ki (dopamine D2 receptor): 0.086 ± 0.0142 µM |
